Laboratory results: paper PMC10343299, “S-Ethyl-Isothiocitrullin-Based Dipeptides and 1,2,4-Oxadiazole Pseudo-Dipeptides: Solid Phase Synthesis and Evaluation as NO Synthase Inhibitors” (Molecules, 2023)
Read-outs that look alike come from different tables or passages of the source.

Columns and labels:
rat nNOS = molecular target: T1, rat nNOS (Rattus norvegicus, UniProt P29476); test: NOS inhibition, oxyhemoglobin (hemoglobin capture) test, recombinant nNOS; assay type: biochemical
T1 construct: Full-length recombinant rat nNOS, mouse iNOS, bovine eNOS; made in house; host or cells: Escherichia coli
T1 sequence (P29476 whole entry): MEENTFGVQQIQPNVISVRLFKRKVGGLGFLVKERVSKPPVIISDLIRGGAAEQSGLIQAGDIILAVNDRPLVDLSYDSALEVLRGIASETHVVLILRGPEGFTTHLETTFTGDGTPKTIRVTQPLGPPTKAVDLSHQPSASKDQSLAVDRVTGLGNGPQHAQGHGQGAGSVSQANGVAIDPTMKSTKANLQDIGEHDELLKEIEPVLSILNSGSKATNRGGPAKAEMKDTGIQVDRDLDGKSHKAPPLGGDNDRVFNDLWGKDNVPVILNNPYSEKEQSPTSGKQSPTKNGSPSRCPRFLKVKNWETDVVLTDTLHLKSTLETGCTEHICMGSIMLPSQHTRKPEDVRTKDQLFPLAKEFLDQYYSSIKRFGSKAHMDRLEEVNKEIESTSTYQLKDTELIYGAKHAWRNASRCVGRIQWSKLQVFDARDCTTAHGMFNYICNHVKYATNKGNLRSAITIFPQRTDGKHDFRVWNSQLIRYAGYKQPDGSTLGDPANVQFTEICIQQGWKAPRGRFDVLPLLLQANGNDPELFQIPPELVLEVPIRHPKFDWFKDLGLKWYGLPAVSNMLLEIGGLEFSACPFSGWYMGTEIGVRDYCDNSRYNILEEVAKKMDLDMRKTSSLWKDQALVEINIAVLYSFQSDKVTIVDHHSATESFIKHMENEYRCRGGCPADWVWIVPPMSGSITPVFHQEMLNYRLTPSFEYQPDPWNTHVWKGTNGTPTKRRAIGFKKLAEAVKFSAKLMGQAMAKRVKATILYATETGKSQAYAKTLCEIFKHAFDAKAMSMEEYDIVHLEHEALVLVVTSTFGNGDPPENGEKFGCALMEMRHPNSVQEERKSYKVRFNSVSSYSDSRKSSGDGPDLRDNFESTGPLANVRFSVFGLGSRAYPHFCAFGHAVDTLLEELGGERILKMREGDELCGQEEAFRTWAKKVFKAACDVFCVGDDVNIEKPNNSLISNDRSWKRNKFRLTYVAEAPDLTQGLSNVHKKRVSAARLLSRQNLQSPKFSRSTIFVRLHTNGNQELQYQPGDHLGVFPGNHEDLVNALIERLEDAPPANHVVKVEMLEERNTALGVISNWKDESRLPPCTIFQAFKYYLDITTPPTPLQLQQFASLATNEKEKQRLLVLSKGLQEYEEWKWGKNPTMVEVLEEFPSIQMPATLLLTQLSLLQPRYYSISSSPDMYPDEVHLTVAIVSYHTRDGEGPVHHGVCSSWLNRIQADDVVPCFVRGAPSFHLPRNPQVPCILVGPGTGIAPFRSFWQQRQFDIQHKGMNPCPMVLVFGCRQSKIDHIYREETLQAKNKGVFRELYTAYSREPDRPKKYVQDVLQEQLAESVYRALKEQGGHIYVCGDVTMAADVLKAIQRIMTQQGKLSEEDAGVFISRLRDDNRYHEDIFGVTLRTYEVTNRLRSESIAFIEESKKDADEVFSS
Experimental: (§1) The inhibitory effects of all compounds against the three recombinant NOSs (rat nNOS, mouse iNOS, and bovine eNOS) were evaluated in 96-well plates using the oxyhemoglobin test. A first screening at 100 and 10 μM was performed, and the IC50 values were measured for compounds showing more than 50% inhibition at 100 μM (Table 1 and Table 2).
(§2) Full-length recombinant rat nNOS, mouse iNOS, bovine eNOS, and the heme domains of rat brain nNOS and mouse iNOS were expressed in Escherichia coli and purified as described previously.
(§3) NOS catalytic activity was measured using the hemoglobin capture assay. The test was performed at 30 °C in 96-well microplates using a final volume of 200 µL. The assay mixture contained 100 µM NADPH, 10 µM BH4, 6 µM HbO2, 100 µM DTT, 5 µM FAD, 5 µM FMN, 10 µM (nNOS and eNOS), or 20 µM (iNOS) arginine, all in a 100 mM Hepes buffer, pH 7.5, and, for constitutive n- and e-NOS, 10 µg/mL calmodulin, and 1 mM CaCl2. The studied compounds were introduced as 2 μL of ×100 concentrated solutions in DMSO, and the control experiments were performed with DMSO or the buffer only. The kinetics of NO production were measured at 401 nm using an Infinite F500 microplate reader (Tecan, Singapore).

bovine eNOS = molecular target: T2, bovine eNOS (Bos taurus, UniProt P29473); test: NOS inhibition, oxyhemoglobin (hemoglobin capture) test, recombinant eNOS; assay type: biochemical; conditions: recombinant enzyme, 10 µM arginine, triplicate, NI = <50% inhibition at 100 μM; for inhibition at 100 µM: read-out: IC50 (μM) eNOS (Bovine)
T2 construct: Full-length recombinant rat nNOS, mouse iNOS, bovine eNOS; made in house; host or cells: Escherichia coli
T2 sequence (P29473 whole entry): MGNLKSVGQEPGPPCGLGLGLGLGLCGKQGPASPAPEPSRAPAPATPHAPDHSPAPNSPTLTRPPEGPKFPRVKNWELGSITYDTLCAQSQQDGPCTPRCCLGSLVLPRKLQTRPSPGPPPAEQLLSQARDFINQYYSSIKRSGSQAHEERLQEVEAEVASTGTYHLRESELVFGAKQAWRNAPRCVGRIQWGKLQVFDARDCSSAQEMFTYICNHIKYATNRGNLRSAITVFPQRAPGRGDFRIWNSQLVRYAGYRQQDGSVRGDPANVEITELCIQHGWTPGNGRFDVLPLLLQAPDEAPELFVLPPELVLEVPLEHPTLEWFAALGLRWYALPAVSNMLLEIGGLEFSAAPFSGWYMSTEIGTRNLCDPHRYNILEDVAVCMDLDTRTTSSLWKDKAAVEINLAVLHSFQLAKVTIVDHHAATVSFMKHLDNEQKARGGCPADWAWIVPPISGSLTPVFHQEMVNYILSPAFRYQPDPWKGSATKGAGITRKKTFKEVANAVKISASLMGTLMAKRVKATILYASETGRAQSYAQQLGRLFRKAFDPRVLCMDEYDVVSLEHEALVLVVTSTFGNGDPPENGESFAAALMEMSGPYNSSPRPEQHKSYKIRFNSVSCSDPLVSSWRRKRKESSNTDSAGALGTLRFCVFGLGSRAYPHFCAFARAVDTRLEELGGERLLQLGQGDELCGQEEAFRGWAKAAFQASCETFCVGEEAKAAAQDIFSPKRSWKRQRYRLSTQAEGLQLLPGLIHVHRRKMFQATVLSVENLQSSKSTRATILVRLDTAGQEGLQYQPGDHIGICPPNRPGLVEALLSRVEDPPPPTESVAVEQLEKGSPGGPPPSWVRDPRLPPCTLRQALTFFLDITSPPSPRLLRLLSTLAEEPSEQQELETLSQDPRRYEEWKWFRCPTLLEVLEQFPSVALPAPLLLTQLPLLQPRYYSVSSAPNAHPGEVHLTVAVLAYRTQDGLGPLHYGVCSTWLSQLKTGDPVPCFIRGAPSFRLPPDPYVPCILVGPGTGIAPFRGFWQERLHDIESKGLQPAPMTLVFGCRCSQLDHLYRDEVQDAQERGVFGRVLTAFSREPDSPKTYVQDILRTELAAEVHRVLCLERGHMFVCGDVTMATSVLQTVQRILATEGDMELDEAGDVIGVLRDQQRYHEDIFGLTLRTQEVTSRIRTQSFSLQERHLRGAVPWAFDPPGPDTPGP

mouse iNOS = molecular target: T3, mouse iNOS (Mus musculus, UniProt P29477); test: NOS inhibition, oxyhemoglobin (hemoglobin capture) test, recombinant iNOS; assay type: biochemical; conditions: recombinant enzyme, 20 µM arginine, triplicate, NI = <50% inhibition at 100 μM
T3 construct: Full-length recombinant rat nNOS, mouse iNOS, bovine eNOS; made in house; host or cells: Escherichia coli
T3 sequence (P29477 1-1144): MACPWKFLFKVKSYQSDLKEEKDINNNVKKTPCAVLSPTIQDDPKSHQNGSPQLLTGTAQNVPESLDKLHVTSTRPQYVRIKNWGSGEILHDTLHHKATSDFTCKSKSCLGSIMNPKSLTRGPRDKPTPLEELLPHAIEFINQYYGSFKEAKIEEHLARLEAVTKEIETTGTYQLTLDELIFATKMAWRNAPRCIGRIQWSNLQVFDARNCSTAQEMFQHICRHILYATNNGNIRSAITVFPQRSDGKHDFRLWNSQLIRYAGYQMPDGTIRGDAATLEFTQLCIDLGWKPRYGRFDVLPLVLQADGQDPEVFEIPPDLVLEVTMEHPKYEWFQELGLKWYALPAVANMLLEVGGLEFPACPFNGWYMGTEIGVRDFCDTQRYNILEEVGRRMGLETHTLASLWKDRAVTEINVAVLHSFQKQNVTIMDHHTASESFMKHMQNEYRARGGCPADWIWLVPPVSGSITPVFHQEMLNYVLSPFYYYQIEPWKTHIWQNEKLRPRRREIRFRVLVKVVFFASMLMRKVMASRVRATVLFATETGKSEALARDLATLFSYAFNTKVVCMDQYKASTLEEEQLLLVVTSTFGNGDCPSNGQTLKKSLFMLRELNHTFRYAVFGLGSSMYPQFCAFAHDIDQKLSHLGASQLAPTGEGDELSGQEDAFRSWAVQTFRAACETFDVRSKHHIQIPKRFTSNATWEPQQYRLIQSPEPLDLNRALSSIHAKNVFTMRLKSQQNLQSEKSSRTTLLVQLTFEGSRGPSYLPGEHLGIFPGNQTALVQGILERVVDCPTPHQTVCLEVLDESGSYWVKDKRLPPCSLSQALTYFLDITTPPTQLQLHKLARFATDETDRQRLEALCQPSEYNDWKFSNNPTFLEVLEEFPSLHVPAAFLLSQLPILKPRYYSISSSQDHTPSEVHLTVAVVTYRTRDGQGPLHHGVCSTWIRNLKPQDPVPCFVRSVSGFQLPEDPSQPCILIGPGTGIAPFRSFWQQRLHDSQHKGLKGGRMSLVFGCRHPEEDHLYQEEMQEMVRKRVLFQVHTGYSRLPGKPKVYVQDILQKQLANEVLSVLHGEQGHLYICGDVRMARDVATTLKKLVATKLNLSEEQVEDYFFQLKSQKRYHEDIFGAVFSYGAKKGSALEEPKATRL
Experimental: as §1, §2, §3

RAW 264.7 cells = test: Cell viability, MTT assay; assay type: cell-based, murine; conditions: for Effect on cell viability (MTT): up to 100 μM
Experimental: Cell viability was evaluated in the murine macrophage RAW 264.7 cells using an MTT assay for compounds 18, 21, 26, and 30. This experiment was performed without or with LPS (1 µg/mL), which induces iNOS expression (Figure S1). […] Compound 30 only killed 20% of the cells at 500 μM (Figure S1A). In the presence of LPS (1 µg/mL), cell viability was reduced by 30% due to the inhibition by NO of key enzymes involved in cell metabolism (Figure S1B).
The macrophage cell line RAW 264.7 (a gift from Dr. A. Blangy, Montpellier, France) was cultured in Dulbecco’s Modified Eagle’s Medium (DMEM) supplemented with 10% FCS, 100 units/mL penicillin, 100 µg/mL streptomycin, and 2 mM L-glutamine.
Cellular NO production was measured using the Griess reagent (Sigma-Aldrich), which evaluates the nitrite content in culture media. Cellular toxicity was estimated by the MTT assay (Sigma-Aldrich) in RAW 264.7 cells after the induction (or not) of iNOS by LPS, according to the manufacturer’s recommendations.

[1] = dipeptide-like series, recombinant enzyme, 10 µM arginine, triplicate, NI = <50% inhibition at 100 μM
[2] = 1,2,4-oxadiazole series, recombinant enzyme, 10 µM arginine, triplicate, NI = <50% inhibition at 100 μM

IC50 (rat nNOS; [1])	inhibition at 100 µM (bovine eNOS; dipeptide-like series)	IC50 (mouse iNOS; dipeptide-like series)	IC50 (rat nNOS; [2])	IC50 (mouse iNOS; 1,2,4-oxadiazole series)	Structure (SMILES)	other results
15.6 µM	< 50%	25.6 µM	–	–	CCSC(=N)NCCC[C@H](N)C(=O)N[C@@H]1CCCN(Cc2ccccc2)C1 [Compound 8]	–
51.1 µM	< 50%	51 µM	–	–	CCSC(=N)NCCC[C@H](N)C(=O)N[C@H]1CCCN(Cc2ccccc2O)C1 [Compound 9]	–
2 µM	–	23.9 µM	–	–	CCSC(=N)NCCC[C@H](N)C(=O)N[C@H]1CCCN(Cc2cc(O)ccc2O)C1 [Compound 10]	IC50 (bovine eNOS; dipeptide-like series): 26.7 µM
–	–	73.4 µM	–	–	CCSC(=N)NCCC[C@H](N)C(=O)N[C@@H]1CCCN(Cc2cc(O)ccc2O)C1 [Compound 11]	IC50 (bovine eNOS; dipeptide-like series): 25.4 µM
–	< 50%	46 µM	–	–	CCSC(=N)NCCC[C@H](N)C(=O)N[C@H]1CCCN(Cc2ccccc2[N+](=O)[O-])C1 [Compound 12]	inhibition at 100 µM (rat nNOS; dipeptide-like series, recombinant enzyme, 10 µM arginine, triplicate, NI = <50% inhibition at 100 μM, read-out: IC50 (μM) nNOS (Rat)): < 50%
30.6 µM	< 50%	78.9 µM	–	–	CCSC(=N)NCCC[C@H](N)C(=O)N[C@@H]1CCCN(Cc2ccccc2[N+](=O)[O-])C1 [Compound 13]	–
25.2 µM	< 50%	31.3 µM	–	–	CCSC(=N)NCCC[C@H](N)C(=O)N[C@H]1CCCN(Cc2cc(O)ccc2[N+](=O)[O-])C1 [Compound 15]	–
49.6 µM	< 50%	54.9 µM	–	–	CCSC(=N)NCCC[C@H](N)C(=O)N[C@H]1CCCN(Cc2cc(OC)c(OC)c(OC)c2)C1 [Compound 16]	–
15.4 µM	< 50%	–	–	–	CCSC(=N)NCCC[C@H](N)C(=O)N[C@H]1CCCN(Cc2cccc(C(F)(F)F)c2)C1 [Compound 20]	inhibition at 100 µM (mouse iNOS; dipeptide-like series, read-out: IC50 (μM) iNOS (Mouse)): < 50%
3.5 µM	–	21.6 µM	–	–	CCSC(=N)NCCC[C@H](N)C(=O)N[C@H]1CCCN(Cc2ccc(-c3cccc([N+](=O)[O-])c3)cc2)C1 [Compound 24]	IC50 (bovine eNOS; dipeptide-like series): 18 µM
2.8 µM	< 50%	36.5 µM	–	–	CCSC(=N)NCCC[C@H](N)C(=O)N[C@H]1CCCN(Cc2cccc(-c3ccccc3)c2)C1 [Compound 25]	–
1.3 µM	< 50%	48.3 µM	–	–	CCSC(=N)NCCC[C@H](N)C(=O)N[C@H]1CCCN(Cc2cccc(-c3cccc([N+](=O)[O-])c3)c2)C1 [Compound 26]	Reversal of LPS-induced reduction of cell viability (RAW 264.7 cells; RAW 264.7, LPS 1 µg/mL): none partially reversed the LPS effect; Effect on cell viability (MTT) (RAW 264.7 cells; RAW 264.7, absence of LPS): fully toxic
–	–	–	58.9 µM	83.7 µM	CCSC(=N)NCCC[C@H](N)c1nc(CCN)no1 [Compound 28]	inhibition at 100 µM (bovine eNOS; 1,2,4-oxadiazole series): < 50%
–	–	–	13.4 µM	11.1 µM	CCSC(=N)NCCC[C@H](N)c1nc(CCNCc2ccccc2)no1 [Compound 29]	IC50 (bovine eNOS; 1,2,4-oxadiazole series): 17.9 µM
–	–	–	1.6 µM	1.3 µM	CCSC(=N)NCCC[C@H](N)c1nc(CCN(Cc2ccccc2)Cc2ccccc2)no1 [Compound 30]	Cells killed (RAW 264.7 cells; RAW 264.7, absence of LPS, 500 μM): 20%; Effect on cell viability (MTT) (RAW 264.7 cells; RAW 264.7, absence of LPS): did not modify cell viability; IC50 (bovine eNOS; 1,2,4-oxadiazole series): 99.6 µM
–	–	–	9.9 µM	11.1 µM	CCSC(=N)NCCC[C@H](N)c1nc(CCN(Cc2ccccc2C)Cc2ccccc2C)no1 [Compound 31]	inhibition at 100 µM (bovine eNOS; 1,2,4-oxadiazole series): < 50%
–	–	–	60.1 µM	51.6 µM	CCSC(=N)NCCC[C@H](N)c1nc(CCNCc2c(C)cccc2C)no1 [Compound 32]	–
–	–	–	10.1 µM	71.5 µM	CCSC(=N)NCCC[C@H](N)c1nc(CCN(Cc2c(C)cccc2C)Cc2c(C)cccc2C)no1 [Compound 33]	inhibition at 100 µM (bovine eNOS; 1,2,4-oxadiazole series): < 50%
–	–	–	1.4 µM	4 µM	CCSC(=N)NCCC[C@H](N)c1nc(CCN(Cc2cccc3ccccc23)Cc2cccc3ccccc23)no1 [Compound 34]	inhibition at 100 µM (bovine eNOS; 1,2,4-oxadiazole series): < 50%
–	–	–	3.1 µM	24.3 µM	CCSC(=N)NCCC[C@H](N)c1nc(CCN(Cc2ccccc2O)Cc2ccccc2O)no1 [Compound 36]	IC50 (bovine eNOS; 1,2,4-oxadiazole series): 20.2 µM
–	–	–	0.3 µM	15.8 µM	CCSC(=N)NCCC[C@H](N)c1nc(CCN(Cc2ccc([N+](=O)[O-])cc2)Cc2ccc([N+](=O)[O-])cc2)no1 [Compound 37]	Selectivity for nNOS against eNOS (rat nNOS; from IC50 values): ~40 fold; Selectivity for nNOS against iNOS (rat nNOS; from IC50 values): ~50 fold; Gain in nNOS inhibition potency over non-substituted compound 28 (rat nNOS; times more potent than 28): 200; IC50 (bovine eNOS; 1,2,4-oxadiazole series): 11.8 µM
–	–	–	0.6 µM	15.9 µM	CCSC(=N)NCCC[C@H](N)c1nc(CCN(Cc2cccc([N+](=O)[O-])c2)Cc2cccc([N+](=O)[O-])c2)no1 [Compound 38]	IC50 (bovine eNOS; 1,2,4-oxadiazole series): 3.9 µM
–	–	–	27 µM	8 µM	CCSC(=N)NCCC[C@H](N)c1nc(CCNCc2ccccc2[N+](=O)[O-])no1 [Compound 39]	IC50 (bovine eNOS; 1,2,4-oxadiazole series): 48.2 µM
–	–	–	3 µM	36.3 µM	CCSC(=N)NCCC[C@H](N)c1nc(CCNCc2cc(O)ccc2[N+](=O)[O-])no1 [Compound 41]	–

Structure (SMILES)	IC50 (rat nNOS; [1])	inhibition at 100 µM (bovine eNOS; dipeptide-like series)	IC50 (mouse iNOS; dipeptide-like series)	IC50 (rat nNOS; [2])	IC50 (mouse iNOS; 1,2,4-oxadiazole series)	other results
CCSC(=N)NCCC[C@H](N)c1nc(CCN(Cc2cc(O)ccc2[N+](=O)[O-])Cc2cc(O)ccc2[N+](=O)[O-])no1 [Compound 42]	–	–	–	1.1 µM	7 µM	inhibition at 100 µM (bovine eNOS; 1,2,4-oxadiazole series): < 50%
